13 compounds from US9611263B2, “Compounds that modulate intracellular calcium” (CALCIMEDICA, INC., priority 2013, dated 2017) can be followed below.

Some results are limits rather than exact numbers.

In one assay the target is T1, Orai1/STIM1 (Homo sapiens, UniProt Q96D31).
T1 construct: expressed in transfected cells
Kind of assay: Fluorescence-based assay of store-operated calcium entry in Orai1/STIM1 stable cells. In kind it is cell-based. The following applies: HEK-293 cells stably expressing human STIM1 and Orai1; 50% inhibition of Peak-Basal fluorescence signal; read-out: Orai1/STIM1 (IC50, μmol). The procedure: A. Fluorescence-Based Assay of Store-Operated Calcium Entry in Orai1/STIM1 Stable Cells.
Cells stably expressing recombinant human STIM1 and Orai1 are generated by transfecting a human Orai1 expression plasmid (pcDNA3.1-Orai1-cmyc) into HEK-293 cells stably overexpressing human STIM1 (Roos et al. 2005 JCB 169(3): 435-445). Colonies of cells stably expressing both STIM1 and Orai1 proteins are selected and then subcloned by limiting dilution. Cells were cultured at 37° C./6% CO2 in complete medium with 10% FBS and appropriate selection markers.
The day prior to performing the assay Orai1/STIM1 stable cells are plated in 50 μL of complete medium at 90-95% confluence in a 384 well plate. Cells are grown at 37° C./6% CO2 overnight. On the day of the assay, 1.5 μM fluo-4-AM (Invitrogen) in complete medium is added to the cells, which are then incubated for 1 hour at RT. Cells are washed once in Ca^2+-free HBSS (Hank's buffered saline solution) and 35 μl of Ca^2+-free HBSS is added to each well. Test compounds are added to wells in a 10 μL Ca^2+-free HBSS solution, prepared at 4.5× the desired final concentration, and incubated for 30 minutes at RT. The initial baseline fluorescence signal is then measured with a FLIPR^384 (Molecular Devices) plate reader. Calcium entry is initiated by adding 5 μl of 10× CaCl2 (10 mM) in HBSS, and changes in cellular fluorescence are measured with the FLIPR^384 plate reader. In each well, the magnitude of the fluorescence signal as a result of calcium entry into the cell is determined by calculating the difference between the peak fluorescence signal measured after calcium addition and the initial baseline fluorescence signal (designated Peak-Basal). IC50 values are typically calculated as the concentration that inhibited 50% of the Peak-Basal signal.

The next assay concerns RBL-2H3 cells. Kind of assay: Fluorescence-based assay of store-operated calcium entry in RBL-2H3 cells. To be noted: for IC50: Rattus norvegicus, RBL-2H3, thapsigargin, 50% inhibition of Upslope, read-out: RBL-2H3 (IC50, μmol). It is filed as cell-based, rat. Here is the method: B. Fluorescence-Based Assay of Store-Operated Calcium Entry in RBL-2H3 Cells.
RBL-2H3 cells are obtained from ATCC and maintained in complete medium with 10% FBS at 37° C./6% CO2.
The day prior to performing the assay, RBL-2H3 cells are plated in 50 μL of complete medium in a 384 well plate. Cells are grown at 37° C./6% CO2 overnight and grow to 50-60% confluence by the next day. On the assay day, 1.5 μM Fluo-4-AM dye (Invitrogen) in complete medium is added and incubated for 1 hour at RT. Cells are washed twice in Ca^2+-free HBSS buffer and 35 μL Ca^2+-free HBSS buffer is added to each well. 10 μL of a test compound prepared in a Ca^2+-free HBSS solution at 4.5× of the desired concentration is added to a well and incubated for 5 minutes at RT. 10 μL of thapsigargin prepared in a Ca^2+-free HBSS solution at 5.5× of the desired concentration (5.5 uM) is added to each well and incubated for an additional 25 minutes. The initial baseline fluorescence signal is measured with a FLIPR^384 (Molecular Devices) plate reader. 5 μL of 12× calcium in HBSS (12 mM) is added and changes in cellular fluorescence are measured with the FLIPR^384 plate reader. In each well, the change in the fluorescent signal as a function of time due to calcium entry into the cell is determined by calculating the difference between the fluorescent signal measured 7 seconds after calcium addition and the initial baseline fluorescence signal at time zero (t=0). This parameter is designated Upslope. The IC50 value is calculated as the concentration at which 50% of the Upslope is inhibited.

T1 sequence (Q96D31 whole entry): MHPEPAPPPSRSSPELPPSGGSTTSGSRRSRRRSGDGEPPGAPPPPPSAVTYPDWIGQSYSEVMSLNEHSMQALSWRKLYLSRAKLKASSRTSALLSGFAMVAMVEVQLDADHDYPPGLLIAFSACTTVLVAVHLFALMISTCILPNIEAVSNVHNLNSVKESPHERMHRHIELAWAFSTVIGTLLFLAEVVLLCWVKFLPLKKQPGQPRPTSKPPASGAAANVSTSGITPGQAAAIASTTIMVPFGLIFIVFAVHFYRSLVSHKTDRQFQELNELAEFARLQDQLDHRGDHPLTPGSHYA

For `CCc1nn(-c2nccs2)cc1-c1ccc(NC(=O)c2c(F)cc(F)cc2F)cc1F` [Example 33, N-(4-(3-ethyl-1-(thiazol-2-yl)-1H-pyrazol-4-yl)-3-fluorophenyl)-2,4,6-trifluorobenzamide], the IC50 was above 1.2 µM at Orai1/STIM1 and below 0.6 µM in the assay with RBL-2H3 cells.

As for `Cc1nn(-c2nccs2)cc1-c1ccc(NCc2c(F)cccc2F)cc1F` [Example 75, N-(2,6-difluorobenzyl)-3-fluoro-4-(3-methyl-1-(thiazol-2-yl)-1H-pyrazol-4-yl)aniline], the IC50 on Orai1/STIM1 and in the assay with RBL-2H3 cells was below 0.6 µM throughout.

In the case of `Cc1cnc(-n2cc(-c3ccc(NC(=O)c4c(F)cc(F)cc4F)nc3)c(C)n2)s1` [Example 65, 2,4,6-trifluoro-N-(5-(3-methyl-1-(5-methylthiazol-2-yl)-1H-pyrazol-4-yl)pyridin-2-yl)benzamide], the IC50 at Orai1/STIM1 was below 0.6 µM. The RBL-2H3 efficacy with RBL-2H3 cells (given in place of a class) is given as below 50%.

On to `Cc1nn(-c2nccs2)cc1-c1ccc(NC(=O)c2c(F)cccc2F)nc1` [Example 18, 2,6-difluoro-N-(5-(3-methyl-1-(thiazol-2-yl)-1H-pyrazol-4-yl)pyridin-2-yl)benzamide], for which the IC50 on Orai1/STIM1 and with RBL-2H3 cells was below 0.6 µM in each case.

In the case of `O=C(Nc1ccc(-c2cn(-c3nccs3)nc2C2CC2)c(F)c1)c1c(F)cc(F)cc1F` [Example 43, N-(4-(3-cyclopropyl-1-(thiazol-2-yl)-1H-pyrazol-4-yl)-3-fluorophenyl)-2,4,6-trifluorobenzamide], the IC50 was above 1.2 µM on Orai1/STIM1 and below 0.6 µM with RBL-2H3 cells.

As to `Cc1nn(-c2cc(F)ccc2F)cc1-c1ccc(NC(=O)c2c(F)cccc2F)nc1` [Example 55, N-(5-(1-(2,5-difluorophenyl)-3-methyl-1H-pyrazol-4-yl)pyridin-2-yl)-2,6-difluorobenzamide], the IC50 on Orai1/STIM1 and with RBL-2H3 cells was below 0.6 µM each time.

In the case of `Cc1nn(-c2nccs2)cc1-c1cnc(NC(=O)c2c(F)ccc(F)c2F)cn1` [Example 27, 2,3,6-trifluoro-N-(5-(3-methyl-1-(thiazol-2-yl)-1H-pyrazol-4-yl)pyrazin-2-yl)benzamide], the IC50 at Orai1/STIM1 and in the assay on RBL-2H3 cells was below 0.6 µM throughout.

In the case of `Cc1cccc(F)c1C(=O)Nc1cnc(-c2cn(-c3nccs3)nc2C)cn1` [Example 26, 2-fluoro-6-methyl-N-(5-(3-methyl-1-(thiazol-2-yl)-1H-pyrazol-4-yl)pyrazin-2-yl)benzamide], the IC50 at Orai1/STIM1 and with RBL-2H3 cells was below 0.6 µM in each case.

Turning to `CCc1nn(-c2nccs2)cc1-c1ccc(NC(=O)c2cc(F)nc(F)c2)cc1F` [Example 34, N-(4-(3-ethyl-1-(thiazol-2-yl)-1H-pyrazol-4-yl)-3-fluorophenyl)-2,6-difluoroisonicotinamide], the IC50 at Orai1/STIM1 is above 1.2 µM; in the assay on RBL-2H3 cells, below 0.6 µM.

For the compound `Cc1nn(-c2nccs2)cc1-c1ccc(NC(=O)c2ccc(F)c(F)c2F)cc1F` [Example 15, 2,3,4-trifluoro-N-(3-fluoro-4-(3-methyl-1-(thiazol-2-yl)-1H-pyrazol-4-yl)phenyl)benzamide], the IC50 on Orai1/STIM1 and with RBL-2H3 cells was below 0.6 µM each time.

Regarding `O=C(Nc1ccc(-c2cn(-c3nccs3)nc2C(F)(F)F)c(F)c1)c1c(F)cccc1F` [Example 51, 2,6-difluoro-N-(3-fluoro-4-(1-(thiazol-2-yl)-3-(trifluoromethyl)-1H-pyrazol-4-yl)phenyl)benzamide], the figures for the IC50 at Orai1/STIM1 and in the assay on RBL-2H3 cells were above 1.2 µM and below 0.6 µM, respectively.

Regarding `Cc1nn(-c2nccs2)cc1-c1cnc(NC(=O)c2c(F)cc(F)cc2F)cn1` [Example 28, 2,4,6-trifluoro-N-(5-(3-methyl-1-(thiazol-2-yl)-1H-pyrazol-4-yl)pyrazin-2-yl)benzamide], the IC50 on Orai1/STIM1 and with RBL-2H3 cells was below 0.6 µM each time.

Take `Cc1nn(-c2nccs2)cc1-c1ccc(NC(=O)c2c(F)cccc2F)cc1F` [Example 10, 2,6-difluoro-N-(3-fluoro-4-(3-methyl-1-(thiazol-2-yl)-1H-pyrazol-4-yl)phenyl)benzamide]: the IC50 on Orai1/STIM1 and in the assay on RBL-2H3 cells was below 0.6 µM throughout.
